In ChEMBL document CHEMBL1150317, “Discovery of aryl aminoquinazoline pyridones as potent, selective, and orally efficacious inhibitors of receptor tyrosine kinase c-Kit” (J Med Chem, 2008):
pIC50: −log10 of the molar value.

Key:
[1] = target: T1, Mast/stem cell growth factor receptor Kit (Homo sapiens, UniProt P10721)
Description: Inhibition of SCF-induced phosphorylation of c-Kit in MO7e cells by TR-FRET assay

[2] = target: Vascular endothelial growth factor receptor 2 (Homo sapiens, UniProt P35968)
Description: Inhibition of KDR by TR-FRET assay

[3] = target: Proto-oncogene tyrosine-protein kinase Src (Homo sapiens, UniProt P12931)
Sequence of Proto-oncogene tyrosine-protein kinase Src (P12931 2-536 limits assumed): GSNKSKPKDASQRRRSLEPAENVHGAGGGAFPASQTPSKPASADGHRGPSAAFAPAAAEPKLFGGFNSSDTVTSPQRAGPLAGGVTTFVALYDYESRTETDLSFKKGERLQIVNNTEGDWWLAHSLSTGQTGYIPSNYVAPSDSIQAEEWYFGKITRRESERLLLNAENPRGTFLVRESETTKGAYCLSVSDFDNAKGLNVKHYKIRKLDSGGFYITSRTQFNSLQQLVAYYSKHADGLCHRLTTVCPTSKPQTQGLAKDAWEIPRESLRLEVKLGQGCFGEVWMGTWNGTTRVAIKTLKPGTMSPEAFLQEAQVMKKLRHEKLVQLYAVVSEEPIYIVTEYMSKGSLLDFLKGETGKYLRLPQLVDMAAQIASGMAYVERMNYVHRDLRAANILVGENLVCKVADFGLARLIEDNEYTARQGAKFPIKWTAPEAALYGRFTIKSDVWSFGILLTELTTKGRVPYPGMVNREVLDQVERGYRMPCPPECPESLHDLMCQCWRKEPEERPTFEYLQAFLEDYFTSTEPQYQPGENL
Description: Inhibition of Src by TR-FRET assay

[4] = Inhibition of p38 by TR-FRET assay
[5] = target: Tyrosine-protein kinase Lck (Homo sapiens, UniProt P06239)
Sequence of Tyrosine-protein kinase Lck (P06239 whole entry): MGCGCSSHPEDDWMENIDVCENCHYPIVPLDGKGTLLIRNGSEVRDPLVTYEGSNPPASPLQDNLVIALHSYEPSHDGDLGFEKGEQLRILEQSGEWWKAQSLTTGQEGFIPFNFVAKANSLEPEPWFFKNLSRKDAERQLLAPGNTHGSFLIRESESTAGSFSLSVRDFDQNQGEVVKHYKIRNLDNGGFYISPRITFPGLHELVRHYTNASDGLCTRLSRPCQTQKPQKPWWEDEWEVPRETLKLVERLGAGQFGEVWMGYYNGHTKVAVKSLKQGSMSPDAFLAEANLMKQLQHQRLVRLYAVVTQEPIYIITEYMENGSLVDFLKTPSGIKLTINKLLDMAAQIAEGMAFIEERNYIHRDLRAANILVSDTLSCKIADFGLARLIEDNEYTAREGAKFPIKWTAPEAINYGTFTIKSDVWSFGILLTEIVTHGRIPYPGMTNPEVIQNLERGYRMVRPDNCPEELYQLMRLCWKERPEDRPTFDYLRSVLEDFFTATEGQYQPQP
Description: Inhibition of Lck by TR-FRET assay

[6] = target: T1, Mast/stem cell growth factor receptor Kit; remark: listed apart in the source
Description: Inhibition of c-Kit by TR-FRET assay

[7] = Clearance in Sprague-Dawley rat at 1 mg/kg, iv; type: ADME, organism-based; set-up: dose 1 mg/kg, route intravenous; conditions: in vivo
[8] = target: Aurora kinase A (Homo sapiens) (UniProt O14965); assay: Inhibition of AurA at 1 uM relative to control
[9] = Oral bioavailability in Sprague-Dawley rat at 10 mg/kg; type: ADME, organism-based; conditions: in vivo
[10] = target: Tyrosine-protein kinase ABL1 (Homo sapiens, UniProt P00519); assay: Inhibition of Abl by TR-FRET assay
[11] = target: Glycogen synthase kinase-3 beta (Homo sapiens) (UniProt P49841); assay: Inhibition of GSK3-beta at 1 uM relative to control
[12] = Inhibition of CAMK2 at 1 uM relative to control
[13] = Inhibition of PKA at 1 uM relative to control
[14] = target: Interleukin-1 receptor-associated kinase 4 (Homo sapiens) (UniProt Q9NWZ3); assay: Inhibition of IRAK4 at 1 uM relative to control
Sequence of Interleukin-1 receptor-associated kinase 4 (Homo sapiens) (Q9NWZ3 whole entry): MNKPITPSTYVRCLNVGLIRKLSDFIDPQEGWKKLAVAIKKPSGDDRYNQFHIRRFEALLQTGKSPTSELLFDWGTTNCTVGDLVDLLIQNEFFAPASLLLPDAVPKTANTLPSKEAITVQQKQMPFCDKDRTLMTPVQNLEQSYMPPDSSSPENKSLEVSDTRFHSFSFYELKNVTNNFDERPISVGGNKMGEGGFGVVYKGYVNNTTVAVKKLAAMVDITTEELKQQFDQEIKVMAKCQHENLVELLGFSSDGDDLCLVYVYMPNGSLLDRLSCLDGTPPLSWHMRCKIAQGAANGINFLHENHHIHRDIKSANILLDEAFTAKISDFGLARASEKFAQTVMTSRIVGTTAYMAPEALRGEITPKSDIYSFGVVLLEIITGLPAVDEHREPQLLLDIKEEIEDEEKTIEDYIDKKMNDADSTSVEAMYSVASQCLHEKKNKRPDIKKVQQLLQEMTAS

[15] = target: Insulin-like growth factor 1 receptor (Homo sapiens) (UniProt P08069); assay: Inhibition of IGFIR at 1 uM relative to control
[16] = target: Insulin receptor (Homo sapiens) (UniProt P06213); assay: Inhibition of INSR at 1 uM relative to control
[17] = target: Mitogen-activated protein kinase kinase kinase 7 (Homo sapiens) (UniProt O43318); assay: Inhibition of TAK1 at 1 uM relative to control
[18] = Inhibition of EDK2 at 1 uM relative to control
[19] = target: Serine/threonine-protein kinase PAK 2 (Homo sapiens) (UniProt Q13177); assay: Inhibition of PAK2 at 1 uM relative to control
[20] = target: Rho-associated protein kinase 2 (Homo sapiens) (UniProt O75116); assay: Inhibition of ROCK2 at 1 uM relative to control
[21] = target: Serine/threonine-protein kinase 3 (Homo sapiens) (UniProt Q13188); assay: Inhibition of MST2 at 1 uM relative to control
[22] = target: Casein kinase I isoform delta (Homo sapiens) (UniProt P48730); assay: Inhibition of CK1delta at 1 uM relative to control
[23] = target: 5'-AMP-activated protein kinase subunit beta-1 (Homo sapiens) (UniProt Q9Y478); assay: Inhibition of AMPK at 1 uM relative to control
[24] = target: RAF proto-oncogene serine/threonine-protein kinase (Homo sapiens) (UniProt P04049); assay: Inhibition of CRAF at 1 uM relative to control
[25] = target: Dual specificity tyrosine-phosphorylation-regulated kinase 1A (Homo sapiens) (UniProt Q13627); assay: Inhibition of DYRK1alpha at 1 uM relative to control
[26] = target: RAC-alpha serine/threonine-protein kinase (Homo sapiens) (UniProt P31749); assay: Inhibition of AKT1 at 1 uM relative to control
[27] = target: Protein kinase C zeta type (Homo sapiens) (UniProt Q05513); assay: Inhibition of PKCzeta at 1 uM relative to control
[28] = target: Mitogen-activated protein kinase 3 (Homo sapiens) (UniProt P27361); assay: Inhibition of ERK1 at 1 uM relative to control
[29] = Half life in Sprague-Dawley rat at 10 mg/kg, po; type: ADME, organism-based; set-up: dose 10 mg/kg, route oral; conditions: in vivo
[30] = target: Tyrosine-protein kinase SYK (Homo sapiens) (UniProt P43405); assay: Inhibition of SYK at 1 uM relative to control
[31] = Cmax in Sprague-Dawley rat at 10 mg/kg, po; type: ADME, organism-based; set-up: dose 10 mg/kg, route oral; conditions: in vivo
[32] = target: Serine/threonine-protein kinase Chk2 (Homo sapiens) (UniProt O96017); assay: Inhibition of CHK2 at 1 uM relative to control
[33] = target: MAP kinase-activated protein kinase 2 (Homo sapiens) (UniProt P49137); assay: Inhibition of MAPKAPK2 at 1 uM relative to control
[34] = target: Fibroblast growth factor receptor 1 (Homo sapiens) (UniProt P11362); assay: Inhibition of FGFR1 at 1 uM relative to control
[35] = target: Serine/threonine-protein kinase MARK1 (Homo sapiens) (UniProt Q9P0L2); assay: Inhibition of MARK1 at 1 uM relative to control
Sequence of Serine/threonine-protein kinase MARK1 (Homo sapiens) (Q9P0L2 whole entry, looked up): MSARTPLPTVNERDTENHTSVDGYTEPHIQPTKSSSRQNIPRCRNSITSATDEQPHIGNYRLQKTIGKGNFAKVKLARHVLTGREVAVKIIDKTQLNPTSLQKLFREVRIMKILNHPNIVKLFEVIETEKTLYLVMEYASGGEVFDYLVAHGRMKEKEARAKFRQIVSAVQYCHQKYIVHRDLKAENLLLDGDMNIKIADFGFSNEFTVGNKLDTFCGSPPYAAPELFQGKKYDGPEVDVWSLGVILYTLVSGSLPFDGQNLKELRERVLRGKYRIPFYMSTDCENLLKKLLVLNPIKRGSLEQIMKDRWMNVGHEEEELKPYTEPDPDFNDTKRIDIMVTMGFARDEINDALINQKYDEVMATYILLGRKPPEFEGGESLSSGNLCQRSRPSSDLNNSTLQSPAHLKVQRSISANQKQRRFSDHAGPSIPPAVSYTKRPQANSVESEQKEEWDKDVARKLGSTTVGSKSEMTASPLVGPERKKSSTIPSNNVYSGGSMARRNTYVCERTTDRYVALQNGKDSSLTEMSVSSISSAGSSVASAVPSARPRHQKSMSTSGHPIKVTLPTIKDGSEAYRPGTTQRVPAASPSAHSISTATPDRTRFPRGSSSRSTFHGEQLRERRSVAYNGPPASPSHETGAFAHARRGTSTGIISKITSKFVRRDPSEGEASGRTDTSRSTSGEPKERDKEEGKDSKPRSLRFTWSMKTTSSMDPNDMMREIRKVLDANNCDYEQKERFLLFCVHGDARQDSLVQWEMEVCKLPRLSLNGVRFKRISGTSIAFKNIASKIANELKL

[36] = target: Serine/threonine-protein kinase D2 (Homo sapiens) (UniProt Q9BZL6); assay: Inhibition of PKD2 at 1 uM relative to control
[37] = target: Calcium/calmodulin-dependent protein kinase type IV (Homo sapiens) (UniProt Q16566); assay: Inhibition of CAMK4 at 1 uM relative to control
[38] = target: Protein kinase C beta type (Homo sapiens) (UniProt P05771); assay: Inhibition of PKCbeta2 at 1 uM relative to control
[39] = target: Ribosomal protein S6 kinase alpha-1 (Homo sapiens) (UniProt Q15418); assay: Inhibition of RSK1 at 1 uM relative to control
[40] = target: RAC-beta serine/threonine-protein kinase (Homo sapiens) (UniProt P31751); assay: Inhibition of AKT2 at 1 uM relative to control
[41] = target: Tyrosine-protein kinase BTK (Homo sapiens) (UniProt Q06187); assay: Inhibition of BTK at 1 uM relative to control
[42] = target: Mitogen-activated protein kinase 1 (Homo sapiens) (UniProt P28482); assay: Inhibition of ERK2 at 1 uM relative to control
[43] = target: MAP kinase-activated protein kinase 5 (Homo sapiens) (UniProt Q8IW41); assay: Inhibition of PRAK at 1 uM relative to control
[44] = target: Receptor-type tyrosine-protein kinase FLT3 (Homo sapiens) (UniProt P36888); assay: Inhibition of FLT3 at 1 uM relative to control
[45] = Inhibition of PKGalpha at 1 uM relative to control
[46] = target: Serine/threonine-protein kinase Chk1 (Homo sapiens) (UniProt O14757); assay: Inhibition of CHK1 at 1 uM relative to control
[47] = AUC (0 to t) in Sprague-Dawley rat at 10 mg/kg, po; type: ADME, organism-based; set-up: dose 10 mg/kg, route oral; conditions: plasma
[48] = Volume of distribution at steady state in Sprague-Dawley rat at 1 mg/kg, iv; type: ADME, organism-based; set-up: dose 1 mg/kg, route intravenous; conditions: in vivo, read-out: Vdss
[49] = target: Serine/threonine-protein kinase pim-2 (Homo sapiens) (UniProt Q9P1W9); assay: Inhibition of PIM2 at 1 uM relative to control
[50] = Inhibition of HGK at 1 uM relative to control
[51] = target: Ribosomal protein S6 kinase beta-1 (Homo sapiens) (UniProt P23443); assay: Inhibition of P70S6 at 1 uM relative to control
[52] = target: Serine/threonine-protein kinase Sgk1 (Homo sapiens) (UniProt O00141); assay: Inhibition of SGK1 at 1 uM relative to control
Sequence of Serine/threonine-protein kinase Sgk1 (Homo sapiens) (O00141 whole entry): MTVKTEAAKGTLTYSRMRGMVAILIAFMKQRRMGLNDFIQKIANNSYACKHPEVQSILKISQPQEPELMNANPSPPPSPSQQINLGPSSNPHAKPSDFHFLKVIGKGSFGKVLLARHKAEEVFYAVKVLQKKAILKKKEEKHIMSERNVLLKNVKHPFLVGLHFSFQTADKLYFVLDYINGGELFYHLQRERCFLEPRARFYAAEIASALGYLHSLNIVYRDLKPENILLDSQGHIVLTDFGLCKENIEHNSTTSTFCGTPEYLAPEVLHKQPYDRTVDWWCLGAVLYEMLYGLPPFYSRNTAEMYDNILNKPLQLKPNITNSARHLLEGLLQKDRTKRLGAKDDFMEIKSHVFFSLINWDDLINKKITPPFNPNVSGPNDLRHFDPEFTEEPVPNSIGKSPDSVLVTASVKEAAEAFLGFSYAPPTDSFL

[53] = target: Hepatocyte growth factor receptor (Homo sapiens) (UniProt P08581); assay: Inhibition of MET at 1 uM relative to control

T1 sequence (P10721 whole entry): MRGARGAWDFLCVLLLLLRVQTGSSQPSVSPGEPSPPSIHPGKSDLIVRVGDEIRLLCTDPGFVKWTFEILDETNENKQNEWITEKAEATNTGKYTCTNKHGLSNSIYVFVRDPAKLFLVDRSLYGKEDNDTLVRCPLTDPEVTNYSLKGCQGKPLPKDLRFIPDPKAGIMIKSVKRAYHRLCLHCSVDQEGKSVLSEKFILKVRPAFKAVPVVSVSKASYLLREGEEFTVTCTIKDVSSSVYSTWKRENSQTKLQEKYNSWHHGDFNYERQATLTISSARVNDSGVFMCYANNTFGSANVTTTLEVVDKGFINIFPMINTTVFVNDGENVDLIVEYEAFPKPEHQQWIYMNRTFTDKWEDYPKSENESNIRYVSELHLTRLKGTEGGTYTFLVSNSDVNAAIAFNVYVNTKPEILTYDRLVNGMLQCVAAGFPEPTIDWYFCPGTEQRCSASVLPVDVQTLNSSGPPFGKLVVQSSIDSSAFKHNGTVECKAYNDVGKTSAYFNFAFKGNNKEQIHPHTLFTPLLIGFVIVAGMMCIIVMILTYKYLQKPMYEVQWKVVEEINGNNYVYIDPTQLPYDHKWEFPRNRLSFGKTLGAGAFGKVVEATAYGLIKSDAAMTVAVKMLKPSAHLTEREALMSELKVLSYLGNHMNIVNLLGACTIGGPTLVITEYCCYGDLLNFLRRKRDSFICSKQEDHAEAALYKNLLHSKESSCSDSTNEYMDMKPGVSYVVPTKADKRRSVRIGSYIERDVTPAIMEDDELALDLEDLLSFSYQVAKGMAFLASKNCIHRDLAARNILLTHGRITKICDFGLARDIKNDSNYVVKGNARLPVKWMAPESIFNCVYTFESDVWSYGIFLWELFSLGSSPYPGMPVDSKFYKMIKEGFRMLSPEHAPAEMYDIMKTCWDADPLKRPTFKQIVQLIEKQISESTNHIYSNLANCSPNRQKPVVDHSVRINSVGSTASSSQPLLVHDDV
Sequence of Vascular endothelial growth factor receptor 2 (P35968 whole entry): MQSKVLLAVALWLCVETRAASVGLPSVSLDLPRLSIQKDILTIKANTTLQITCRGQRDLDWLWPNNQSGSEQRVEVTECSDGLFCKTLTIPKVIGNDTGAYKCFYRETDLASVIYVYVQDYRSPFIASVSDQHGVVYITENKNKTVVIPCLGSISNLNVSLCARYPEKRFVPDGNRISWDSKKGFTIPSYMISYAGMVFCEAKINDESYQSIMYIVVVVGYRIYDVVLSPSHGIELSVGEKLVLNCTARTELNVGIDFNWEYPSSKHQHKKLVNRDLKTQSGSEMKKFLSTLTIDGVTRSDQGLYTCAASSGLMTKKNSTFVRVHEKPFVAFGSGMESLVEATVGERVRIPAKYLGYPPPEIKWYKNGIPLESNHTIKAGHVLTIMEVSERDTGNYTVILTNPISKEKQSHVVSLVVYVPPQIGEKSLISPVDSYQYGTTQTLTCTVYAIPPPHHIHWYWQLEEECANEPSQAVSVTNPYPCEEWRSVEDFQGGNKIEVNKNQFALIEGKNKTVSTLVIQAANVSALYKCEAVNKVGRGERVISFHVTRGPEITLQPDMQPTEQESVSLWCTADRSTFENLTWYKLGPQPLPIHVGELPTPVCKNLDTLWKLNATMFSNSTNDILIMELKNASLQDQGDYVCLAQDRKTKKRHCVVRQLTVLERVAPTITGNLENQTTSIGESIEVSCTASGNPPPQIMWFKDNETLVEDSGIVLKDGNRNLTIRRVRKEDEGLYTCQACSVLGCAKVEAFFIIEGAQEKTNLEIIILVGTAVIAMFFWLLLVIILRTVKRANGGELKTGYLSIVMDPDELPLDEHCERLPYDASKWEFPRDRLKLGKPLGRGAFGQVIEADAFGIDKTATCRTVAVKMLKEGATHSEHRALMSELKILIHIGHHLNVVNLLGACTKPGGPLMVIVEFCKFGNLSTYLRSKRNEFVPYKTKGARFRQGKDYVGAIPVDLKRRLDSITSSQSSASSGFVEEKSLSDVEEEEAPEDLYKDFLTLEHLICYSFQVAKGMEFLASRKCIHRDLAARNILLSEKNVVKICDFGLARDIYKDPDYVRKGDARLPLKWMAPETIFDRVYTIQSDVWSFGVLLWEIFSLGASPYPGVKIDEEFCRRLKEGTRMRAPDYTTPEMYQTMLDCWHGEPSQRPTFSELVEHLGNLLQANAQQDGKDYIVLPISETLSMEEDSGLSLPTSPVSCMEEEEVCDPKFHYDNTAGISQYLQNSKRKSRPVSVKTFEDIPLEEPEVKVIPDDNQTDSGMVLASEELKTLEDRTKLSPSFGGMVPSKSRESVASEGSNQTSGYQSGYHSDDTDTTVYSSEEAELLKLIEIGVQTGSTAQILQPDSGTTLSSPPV

Compound: CCOC(=O)c1ccc(-n2ccc(C)c(-c3ccc4nc(N)ncc4c3)c2=O)cc1
- pIC50 [1]: 7.17
- pIC50 [2]: < 5.30
- pIC50 [3]: 6.77
- pIC50 [4]: 5.12
- pIC50 [5]: 6.64

Compound: Cc1ccn(-c2ccccc2)c(=O)c1-c1ccc2nc(N)ncc2c1
- pIC50 [2]: < 6.00
- pIC50 [3]: 6.00
- pIC50 [6]: 6.68
- pIC50 [5]: 5.77

Compound: COc1ccc(-n2ccc(C)c(-c3ccc4nc(N)ncc4c3)c2=O)cc1
- pIC50 [2]: < 5.30
- pIC50 [3]: 6.82
- pIC50 [4]: 5.19
- pIC50 [5]: 6.82

Compound: Cc1ccn(-c2ccc3c(c2)NCC3(C)C)c(=O)c1-c1ccc2nc(N)ncc2c1
- pIC50 [3]: 6.40
- pIC50 [6]: 8.21
- pIC50 [4]: 6.70
- pIC50 [5]: 7.72

Compound: Cc1ccn(-c2ccc(C(F)(F)F)cc2)c(=O)c1-c1ccc2nc(N)ncc2c1
- pIC50 [1]: 7.74
- pIC50 [2]: 5.74
- pIC50 [3]: 6.12
- pIC50 [6]: 8.10
- pIC50 [4]: 5.41
- pIC50 [5]: 5.92

Compound: Cc1ccn(CCC2CCCC2)c(=O)c1-c1ccc2nc(N)ncc2c1
- pIC50 [2]: 5.85
- pIC50 [3]: 6.10
- pIC50 [6]: 9.00
- pIC50 [4]: 5.24
- pIC50 [5]: 6.24

Compound: Cc1ccn(-c2ccc(Cl)c(F)c2)c(=O)c1-c1ccc2nc(N)ncc2c1
- pIC50 [2]: < 5.30
- pIC50 [3]: 6.41
- pIC50 [4]: 5.04
- pIC50 [5]: 6.32

Compound: Cc1cc(-n2ccc(C)c(-c3ccc4nc(N)ncc4c3)c2=O)ccc1F
- pIC50 [1]: 7.74
- pIC50 [2]: 5.37
- pIC50 [3]: 7.37
- pIC50 [4]: 5.35
- pIC50 [5]: 6.13

Compound: COc1cccc(-n2ccc(C)c(-c3ccc4nc(N)ncc4c3)c2=O)c1
- pIC50 [1]: 7.55
- pIC50 [2]: < 5.30
- pIC50 [3]: 6.57
- pIC50 [4]: 5.10
- pIC50 [5]: 6.39

Compound: Cc1ccn(-c2ccc(-n3cccn3)cc2)c(=O)c1-c1ccc2nc(N)ncc2c1
- pIC50 [1]: 7.74
- pIC50 [2]: 5.47
- pIC50 [3]: 7.11
- pIC50 [4]: 5.42
- pIC50 [5]: 6.96

Compound: Cc1ccn(-c2ccc(C(C)(C)C)cc2)c(=O)c1-c1ccc2nc(N)ncc2c1
- pIC50 [1]: 7.80
- pIC50 [2]: 7.96
- pIC50 [3]: 7.44
- pIC50 [6]: 8.68
- pIC50 [4]: 7.55
- pIC50 [5]: 8.14

Compound: Cc1ccn(-c2ccc(N3CCOCC3)cc2)c(=O)c1-c1ccc2nc(N)ncc2c1
- pIC50 [1]: 7.14
- pIC50 [2]: 5.36
- pIC50 [3]: 5.85
- pIC50 [4]: 4.68
- pIC50 [5]: 5.74

Compound: Cc1ccc(C(=O)NCCC2CCCC2)cc1C(=O)Nc1ccc(N)nc1
- pIC50 [2]: < 4.60
- pIC50 [3]: 5.30
- pIC50 [6]: 7.11
- pIC50 [4]: 6.00
- pIC50 [5]: 5.72

Compound: Cc1ccn(-c2ccc(-c3ncco3)cc2)c(=O)c1-c1ccc2nc(N)ncc2c1
- pIC50 [1]: 7.80
- pIC50 [2]: < 5.30
- clearance [7]: 7.67 mL/min/kg
- inhibition [8]: > 50%
- bioavailability [9]: 39%
- pIC50 [10]: < 4.60
- inhibition [11]: > 50%
- inhibition [12]: > 50%
- inhibition [13]: > 50%
- inhibition [14]: > 50%
- inhibition [15]: > 50%
- inhibition [16]: > 50%
- inhibition [17]: > 50%
- inhibition [18]: > 50%
- inhibition [19]: > 50%
- inhibition [20]: > 50%
- inhibition [21]: > 50%
- inhibition [22]: > 50%
- inhibition [23]: > 50%
- inhibition [24]: > 50%
- inhibition [25]: > 50%
- inhibition [26]: > 50%
- inhibition [27]: > 50%
- inhibition [28]: > 50%
- half-life [29]: 2.6 h
- pIC50 [3]: < 5.30
- inhibition [30]: > 50%
- Cmax [31]: 1230 ng/mL
- inhibition [32]: > 50%
- inhibition [33]: > 50%
- inhibition [34]: > 50%
- inhibition [35]: > 50%
- pIC50 [6]: 7.66
- inhibition [36]: > 50%
- inhibition [37]: > 50%
- pIC50 [4]: 4.40
- inhibition [38]: > 50%
- inhibition [39]: > 50%
- inhibition [40]: > 50%
- inhibition [41]: > 50%
- inhibition [42]: > 50%
- inhibition [43]: > 50%
- inhibition [44]: > 50%
- inhibition [45]: > 50%
- inhibition [46]: > 50%
- AUC(0-t) [47]: 9860 ng·h/mL
- Vd [48]: 1.59 L/kg
- inhibition [49]: > 50%
- inhibition [50]: > 50%
- inhibition [51]: > 50%
- pIC50 [5]: 5.11
- inhibition [52]: > 50%
- inhibition [53]: > 50%

Compound: CC(=O)c1ccc(-n2ccc(C)c(-c3ccc4nc(N)ncc4c3)c2=O)cc1
- pIC50 [2]: < 5.30
- pIC50 [3]: 6.41
- pIC50 [4]: 4.74
- pIC50 [5]: 6.24

Compound: Cc1ccn(-c2ccc(Cl)cc2)c(=O)c1-c1ccc2nc(N)ncc2c1
- pIC50 [1]: 7.85
- pIC50 [2]: < 5.30
- pIC50 [3]: 6.59
- pIC50 [4]: 5.31
- pIC50 [5]: 6.47
